Experimental data as given in the NIST ThermoML archive (doi:10.1016/j.jct.2018.08.035).
Several values for one entry are separate records, joined by “and”; a condition that tells them apart may be missing. Equal entries are not always repeated.

Assay: xn = mol fraction of the nth substance listed
Details: 100 kPa, Liquid, Vibrating tube method

CCC(O)CC [3-pentanol] + C[N+](=O)[O-]
Details | mass density
291.86 K, x1 = 0.325 | 974.982 kg/m3
291.86 K, x1 = 0.363 | 961.613 kg/m3
291.86 K, x1 = 0.407 | 946.991 kg/m3
291.86 K, x1 = 0.488 | 922.68 kg/m3
291.86 K, x1 = 0.546 | 907.193 kg/m3
291.86 K, x1 = 0.587 | 896.735 kg/m3
291.95 K, x1 = 0.246 | 1005.58 kg/m3
291.95 K, x1 = 0.275 | 993.548 kg/m3
291.95 K, x1 = 0.3 | 984.145 kg/m3
291.95 K, x1 = 0.325 | 974.857 kg/m3
291.95 K, x1 = 0.338 | 970.048 kg/m3
291.95 K, x1 = 0.363 | 961.485 kg/m3
291.95 K, x1 = 0.382 | 954.991 kg/m3
291.95 K, x1 = 0.407 | 946.861 kg/m3
291.95 K, x1 = 0.414 | 944.587 kg/m3
291.95 K, x1 = 0.486 | 923.287 kg/m3
291.95 K, x1 = 0.488 | 922.559 kg/m3
291.95 K, x1 = 0.573 | 900.26 kg/m3
291.95 K, x1 = 0.587 | 896.628 kg/m3
291.95 K, x1 = 0.615 | 889.805 kg/m3
291.96 K, x1 = 0.266 | 997.055 kg/m3
291.96 K, x1 = 0.546 | 907.079 kg/m3
292.05 K, x1 = 0.246 | 1005.45 kg/m3
292.05 K, x1 = 0.275 | 993.426 kg/m3
292.05 K, x1 = 0.382 | 954.866 kg/m3
292.05 K, x1 = 0.414 | 944.459 kg/m3
292.05 K, x1 = 0.486 | 923.167 kg/m3
292.05 K, x1 = 0.573 | 900.153 kg/m3
292.05 K, x1 = 0.615 | 889.701 kg/m3
292.06 K, x1 = 0.266 | 996.934 kg/m3
292.06 K, x1 = 0.3 | 984.022 kg/m3
292.06 K, x1 = 0.325 | 974.734 kg/m3
292.06 K, x1 = 0.338 | 969.925 kg/m3
292.06 K, x1 = 0.363 | 961.36 kg/m3
292.06 K, x1 = 0.407 | 946.736 kg/m3
292.06 K, x1 = 0.488 | 922.439 kg/m3
292.06 K, x1 = 0.546 | 906.966 kg/m3
292.06 K, x1 = 0.587 | 896.519 kg/m3
292.15 K, x1 = 0.246 | 1005.33 kg/m3
292.15 K, x1 = 0.325 | 974.609 kg/m3
292.15 K, x1 = 0.338 | 969.8 kg/m3
292.15 K, x1 = 0.382 | 954.742 kg/m3
292.15 K, x1 = 0.414 | 944.336 kg/m3
292.15 K, x1 = 0.486 | 923.052 kg/m3
292.15 K, x1 = 0.488 | 922.322 kg/m3
292.16 K, x1 = 0.266 | 996.81 kg/m3
292.16 K, x1 = 0.275 | 993.303 kg/m3
292.16 K, x1 = 0.3 | 983.896 kg/m3
292.16 K, x1 = 0.363 | 961.234 kg/m3
292.16 K, x1 = 0.407 | 946.608 kg/m3
292.16 K, x1 = 0.546 | 906.853 kg/m3
292.16 K, x1 = 0.573 | 900.046 kg/m3
292.16 K, x1 = 0.587 | 896.411 kg/m3
292.16 K, x1 = 0.615 | 889.595 kg/m3
292.16 K, x1 = 0.629 | 886.146 kg/m3
293.15 K, x1 = 0.266 | 995.587 kg/m3
293.15 K, x1 = 0.338 | 968.578 kg/m3
293.15 K, x1 = 0.546 | 905.746 kg/m3
293.16 K, x1 = 0.246 | 1004.11 kg/m3
293.16 K, x1 = 0.275 | 992.082 kg/m3
293.16 K, x1 = 0.3 | 982.679 kg/m3
293.16 K, x1 = 0.325 | 973.389 kg/m3
293.16 K, x1 = 0.363 | 960.014 kg/m3
293.16 K, x1 = 0.382 | 953.524 kg/m3
293.16 K, x1 = 0.407 | 945.397 kg/m3
293.16 K, x1 = 0.414 | 943.126 kg/m3
293.16 K, x1 = 0.486 | 921.889 kg/m3
293.16 K, x1 = 0.488 | 921.165 kg/m3
293.16 K, x1 = 0.573 | 898.962 kg/m3
293.16 K, x1 = 0.587 | 895.341 kg/m3
293.16 K, x1 = 0.615 | 888.546 kg/m3
293.16 K, x1 = 0.629 | 885.109 kg/m3
294.15 K, x1 = 0.246 | 1002.88 kg/m3
294.15 K, x1 = 0.266 | 994.369 kg/m3
294.15 K, x1 = 0.275 | 990.864 kg/m3
294.15 K, x1 = 0.3 | 981.466 kg/m3
294.15 K, x1 = 0.325 | 972.183 kg/m3
294.15 K, x1 = 0.338 | 967.375 kg/m3
294.15 K, x1 = 0.363 | 958.817 kg/m3
294.15 K, x1 = 0.382 | 952.329 kg/m3
294.15 K, x1 = 0.407 | 944.215 kg/m3
294.15 K, x1 = 0.414 | 941.945 kg/m3
294.15 K, x1 = 0.486 | 920.751 kg/m3
294.15 K, x1 = 0.488 | 920.031 kg/m3
294.15 K, x1 = 0.546 | 904.649 kg/m3
294.15 K, x1 = 0.573 | 897.886 kg/m3
294.15 K, x1 = 0.587 | 894.274 kg/m3
294.15 K, x1 = 0.615 | 887.502 kg/m3
294.15 K, x1 = 0.629 | 884.073 kg/m3
295.15 K, x1 = 0.246 | 1001.66 kg/m3
295.15 K, x1 = 0.266 | 993.153 kg/m3
295.15 K, x1 = 0.275 | 989.651 kg/m3
295.15 K, x1 = 0.3 | 980.26 kg/m3
295.15 K, x1 = 0.325 | 970.983 kg/m3
295.15 K, x1 = 0.338 | 966.179 kg/m3
295.15 K, x1 = 0.363 | 957.627 kg/m3
295.15 K, x1 = 0.382 | 951.15 kg/m3
295.15 K, x1 = 0.407 | 943.045 kg/m3
295.15 K, x1 = 0.414 | 940.778 kg/m3
295.15 K, x1 = 0.486 | 919.625 kg/m3
295.15 K, x1 = 0.488 | 918.905 kg/m3
295.15 K, x1 = 0.546 | 903.56 kg/m3
295.15 K, x1 = 0.587 | 893.213 kg/m3
295.15 K, x1 = 0.615 | 886.458 kg/m3
295.15 K, x1 = 0.629 | 883.039 kg/m3
295.16 K, x1 = 0.573 | 896.815 kg/m3
296.15 K, x1 = 0.275 | 988.439 kg/m3
296.15 K, x1 = 0.338 | 964.988 kg/m3
296.15 K, x1 = 0.382 | 949.976 kg/m3
296.15 K, x1 = 0.414 | 939.619 kg/m3
296.15 K, x1 = 0.615 | 885.416 kg/m3
296.16 K, x1 = 0.246 | 1000.44 kg/m3
296.16 K, x1 = 0.266 | 991.939 kg/m3
296.16 K, x1 = 0.3 | 979.058 kg/m3
296.16 K, x1 = 0.325 | 969.786 kg/m3
296.16 K, x1 = 0.363 | 956.447 kg/m3
296.16 K, x1 = 0.407 | 941.881 kg/m3
296.16 K, x1 = 0.486 | 918.503 kg/m3
296.16 K, x1 = 0.488 | 917.785 kg/m3
296.16 K, x1 = 0.546 | 902.476 kg/m3
296.16 K, x1 = 0.573 | 895.746 kg/m3
296.16 K, x1 = 0.587 | 892.153 kg/m3
296.16 K, x1 = 0.629 | 882.004 kg/m3
297.15 K, x1 = 0.246 | 999.224 kg/m3
297.15 K, x1 = 0.266 | 990.728 kg/m3
297.15 K, x1 = 0.3 | 977.857 kg/m3
297.15 K, x1 = 0.325 | 968.596 kg/m3
297.15 K, x1 = 0.338 | 963.801 kg/m3
297.15 K, x1 = 0.363 | 955.27 kg/m3
297.15 K, x1 = 0.382 | 948.809 kg/m3
297.15 K, x1 = 0.407 | 940.724 kg/m3
297.15 K, x1 = 0.414 | 938.464 kg/m3
297.15 K, x1 = 0.486 | 917.385 kg/m3
297.15 K, x1 = 0.488 | 916.67 kg/m3
297.15 K, x1 = 0.573 | 894.678 kg/m3
297.15 K, x1 = 0.615 | 884.375 kg/m3
297.15 K, x1 = 0.629 | 880.972 kg/m3
297.16 K, x1 = 0.275 | 987.23 kg/m3
297.16 K, x1 = 0.546 | 901.393 kg/m3
297.16 K, x1 = 0.587 | 891.096 kg/m3
298.15 K, x1 = 0.246 | 998.021 kg/m3
298.15 K, x1 = 0.266 | 989.517 kg/m3
298.15 K, x1 = 0.275 | 986.032 kg/m3
298.15 K, x1 = 0.3 | 976.66 kg/m3
298.15 K, x1 = 0.325 | 967.413 kg/m3
298.15 K, x1 = 0.338 | 962.62 kg/m3
298.15 K, x1 = 0.363 | 954.105 kg/m3
298.15 K, x1 = 0.382 | 947.647 kg/m3
298.15 K, x1 = 0.407 | 939.572 kg/m3
298.15 K, x1 = 0.414 | 937.32 kg/m3 and 937.319 kg/m3
298.15 K, x1 = 0.486 | 916.279 kg/m3
298.15 K, x1 = 0.488 | 915.564 kg/m3
298.15 K, x1 = 0.546 | 900.318 kg/m3
298.15 K, x1 = 0.573 | 893.615 kg/m3
298.15 K, x1 = 0.587 | 890.042 kg/m3
298.15 K, x1 = 0.615 | 883.332 kg/m3
298.15 K, x1 = 0.629 | 879.94 kg/m3
